Results taken from patent US8980851B2, “Methods for bone treatment by modulating an arachidonic acid metabolic or signaling pathway” (Accelalox, Inc., priority 2005, dated 2015).
Where two headings read alike, the source gives them in different places.

Experiments:
[1] = test system: fetal rat calvaria (osteoblast) cells; conditions: in vitro; cited from earlier work
mouse calvaria = conditions: in vitro organ culture; cited from earlier work
closed femur fracture [2] = test: Rat closed femur fracture healing, radiographs (Example 4); format: in vivo, Sprague-Dawley rats; conditions: treated rats vs untreated rats
Method: (§1) Sprague-Dawley rats (3 months old) underwent a standard closed femur fracture procedure as described in the art (Simon et al. Journal of Bone and Mineral Research, 17(6): 963-976 (2002); Bonnarens and Einhorn, Production of a standard closed fracture in laboratory animal bone. Journal of Orthopaedic Research, 2: 97-101 (1984)). The impending fracture was stabilized with an intramedullary stainless steel pin. Beginning 4 hours after fracture the rats were treated with vehicle (1% methylcellulose) or inhibitors of 5-LO suspended in 1% methylcellulose Inhibitor A (NDGA) was administered at 30 mg/kg and Inhibitor B (AA-861) was administered at 5 mg/kg. The day after surgery and continuing until day 21 post-fracture, experimental rats were treated with 2 doses of inhibitor (either A or B), the first dose between […] and then again with another dose 8-10 hours later. Control rats were treated similarly but with carrier only (1% methylcellulose). Three weeks after fracture the rats were anesthetized and high resolution radiographs were made of the fractured femurs using a Packard Faxitron and Kodak MinR2000 mammography film (FIGS. 8A, 8B, and 8C). Five weeks after fracture the rats were sacrificed, femurs resected, and assayed for structural mechanical properties by torsional mechanical testing (FIG. 8D).

closed femur fracture [3] = test: Torsional mechanical testing of fractured rat femurs (Example 4); format: in vivo, Sprague-Dawley rats; conditions: 5 weeks of healing; for greater peak torque than vehicle treated rats: Inhibitor A 30 mg/kg, Inhibitor B 5 mg/kg, 2 doses daily until day 21; for mode of femur failure in torsional testing (boney union vs non-union): all femurs, vehicle 13% (2 of 15) non-unions
Method: as §1
Torsional mechanical testing was used to measure the peak torque sustained by each femur after 5 weeks of healing.

Saos-2 cells = conditions: cited from earlier work
[4] = test system: primary rat calvaria (osteoblast) cultures; conditions: in vitro; cited from earlier work
G292 cells = conditions: cited from earlier work
[5] = higher concentration (0.3-1 micromolar)

Row | Compound | alkaline phosphatase activity [1] | bone nodule formation [1] | BMP2 induced increase in mouse calvaria thickness (mouse calvaria) | osteogenesis / fracture healing (FIG. 8, x-rays) (closed femur fracture [2]) | greater peak torque than vehicle treated rats (closed femur fracture [3]) [%] | mode of femur failure in torsional testing (boney union vs non-union) (closed femur fracture [3]) | proliferation of Saos-2 cells (Saos-2 cells; concentration not given) | proliferation of primary rat osteoblast cultures [4] | other results
1 | 5-hydroxyeicosatetraenoic acid [Inhibitor 5-HETE] | reduce | reduce | prevented |  |  |  |  |  | 
2 | CC(Cc1ccc(O)c(O)c1)C(C)Cc1ccc(O)c(O)c1 (stereo not drawn) [Inhibitor A, nordihydroguaiaretic acid] |  |  |  | accelerated | 22 | failed as boney unions |  |  | 
3 | CC1=C(C)C(=O)C(CCCCC#CCCCC#CCO)=C(C)C1=O [Inhibitor B, 2-(12-hydroxydodeca-5,10-diynyl)-3,5,6-trimethyl-1,4-benzoquinone] |  |  |  | accelerated | 53 | failed as boney unions | no effect |  | 
4 | CCCCC/C=C\C[C@@H](O)/C=C/C=C/C=C\[C@@H](O)CCCC(=O)O [LTB4] | reduce | reduce | prevented |  |  |  |  | reduces proliferation | proliferation of Saos-2 cells (Saos-2 cells; [5]): promote proliferation; proliferation of G292 cells (G292 cells; [5]): promote proliferation
5 | CCCCC/C=C\C\C=C/C=C/C=C/[C@@H](SC[C@H](NC(=O)CC[C@H](N)C(=O)O)C(=O)NCC(=O)O)[C@@H](O)CCCC(=O)O [LTC4] |  |  |  |  |  |  | no effect | no effect | proliferation of G292 cells (G292 cells; concentration not given): promote proliferation
6 | CCCCC/C=C\C\C=C/C=C/C=C/[C@@H](SC[C@H](N)C(=O)NCC(=O)O)[C@@H](O)CCCC(=O)O [LTD4] | no effect | no effect |  |  |  |  |  |  | 
